Measured values reported in publication PMC2921628 (Biochemistry, 2010).
Where two headings read alike, the source gives them in different places.

How the values were obtained:
cdk5/p25 [1] = biological target: T1, cdk5/p25 (Homo sapiens, UniProt Q00535); experiment: Inhibition studies with substrate analogues and product ADP at 0.2 mM MgCl2; assay type: biochemical; conditions: 0.2 mM Mg^2+
cdk5/p25 [2] = biological target: T1, cdk5/p25; experiment: Influence of D2O on inhibitor; assay type: biochemical; conditions: 10 µM ATP, saturating H1P; data not shown
cdk5/p25 [3] = biological target: T1, cdk5/p25; experiment: Initial velocity kinetic analysis of cdk5/p25-catalyzed H1P phosphorylation; assay type: biochemical
[4] = cited from earlier work
[5] = versus variable substrate ATP (H1P fixed)
[6] = versus variable substrate H1P (ATP fixed)

T1 sequence (Q00535 whole entry, species assumed): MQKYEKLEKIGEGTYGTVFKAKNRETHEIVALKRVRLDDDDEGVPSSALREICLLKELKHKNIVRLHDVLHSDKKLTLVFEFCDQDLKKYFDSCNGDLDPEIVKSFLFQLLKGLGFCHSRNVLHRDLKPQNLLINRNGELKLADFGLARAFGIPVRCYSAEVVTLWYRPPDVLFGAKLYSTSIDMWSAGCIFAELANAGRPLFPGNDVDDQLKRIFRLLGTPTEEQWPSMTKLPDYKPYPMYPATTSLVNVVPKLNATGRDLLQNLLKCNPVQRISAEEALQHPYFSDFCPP
T1 sequence (Q15078 99-307 partner limits assumed, species assumed): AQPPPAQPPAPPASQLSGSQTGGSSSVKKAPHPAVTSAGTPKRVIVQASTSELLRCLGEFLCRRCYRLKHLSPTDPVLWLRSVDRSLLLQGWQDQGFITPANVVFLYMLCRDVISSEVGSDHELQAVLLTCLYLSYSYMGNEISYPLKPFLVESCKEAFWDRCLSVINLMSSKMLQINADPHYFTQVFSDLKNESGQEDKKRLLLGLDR

## Nc1ncnc2c1ncn2[C@@H]1O[C@H](COP(=O)(O)OP(=O)(O)O)[C@@H](O)[C@H]1O [ADP]
cdk5/p25 [1]; [5]
  mechanism of inhibition: competitive
cdk5/p25 [1]; [6]
  mechanism of inhibition: noncompetitive

## Nc1ncnc2c1ncn2[C@@H]1O[C@H](COP(=O)(O)O)[C@@H](O)[C@H]1O [AMP]
cdk5/p25 [1]
  enzyme forms that inhibitor binds: binds to both E and E:B complex
cdk5/p25 [1]; [5]
  mechanism of inhibition: competitive
cdk5/p25 [1]; [6]
  mechanism of inhibition: noncompetitive
cdk5/p25 [2]
  dissociation constant from E:H1P:AMP, lowering in 85% D2O compared with water: approximately 1.5 fold

## Nc1ncnc2c1ncn2[C@@H]1O[C@H](COP(=O)(O)OP(=O)(O)OP(=O)(O)O)[C@@H](O)[C@H]1O [ATP, Adenosine 5’-triphosphate]
cdk5/p25 [3]; KATP (KMgATP), 2.5 mM free Mg^2+
  Kd: 6.1 ± 1.5 µM
[4]
  pKa for protonation of the γ-phosphate of ATP: 4.6

## Nc1ncnc2c1ncn2[C@@H]1O[C@H](COP(=O)(O)OP(=O)([O-])OP(=O)([O-])O)[C@@H](O)[C@H]1O.[Mg+2] [MgATP]
cdk5/p25 [3]; MgATP dependence of (kcat)H1P at 0.2 mM free Mg^2+ (Figure 1B)
  hill coefficient: 1.8 ± 0.1
cdk5/p25 [3]; read-out: KATP (KMgATP), 0.2 mM free Mg^2+
  Kd: 60 ± 20 µM
cdk5/p25 [3]; read-out: KATP (KMgATP), 2.5 mM free Mg^2+
  Kd: 6.1 ± 1.5 µM
[4]; used to calculate MgATP and free Mg^2+ concentrations
  dissociation constant of MgATP: 14.3 µM
